ChEMBL document CHEMBL1201862, “PubChem BioAssay data set” (2004)
Active and inactive are the calls of the source.

Key:
[1] = molecular target: FAD-linked sulfhydryl oxidase ALR (Homo sapiens, UniProt P55789); assay: ALR-catalysed DTT oxidation blockers – biochemical, H2O2 detection, luminescence, cherry-pick, dose response (AID 493248)
[2] = molecular target: T1, Zinc finger protein mex-5 (Caenorhabditis elegans, UniProt Q9XUB2); assay: potency of MEX-5 RNA-binding blockers – biochemical, C. elegans, fluorescence polarization, dose response (AID 1960)
T1 sequence (Q9XUB2 whole entry): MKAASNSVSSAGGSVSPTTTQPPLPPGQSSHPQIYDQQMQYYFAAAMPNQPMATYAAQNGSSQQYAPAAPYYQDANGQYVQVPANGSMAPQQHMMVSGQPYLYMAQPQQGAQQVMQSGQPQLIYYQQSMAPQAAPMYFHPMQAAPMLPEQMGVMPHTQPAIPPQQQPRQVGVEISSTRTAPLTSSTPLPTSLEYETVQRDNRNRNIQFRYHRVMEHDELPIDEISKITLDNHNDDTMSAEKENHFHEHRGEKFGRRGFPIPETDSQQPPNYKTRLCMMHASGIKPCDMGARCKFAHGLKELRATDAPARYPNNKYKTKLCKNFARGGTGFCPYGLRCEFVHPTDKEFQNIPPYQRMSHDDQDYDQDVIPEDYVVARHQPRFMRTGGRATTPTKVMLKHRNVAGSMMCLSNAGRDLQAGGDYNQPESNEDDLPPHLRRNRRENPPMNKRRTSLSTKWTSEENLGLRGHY

[3] = molecular target: T2, RNA-binding protein pos-1 (Caenorhabditis elegans, UniProt G5EF15); assay: disruptors of C. elegans POS-1 RNA interaction – biochemical, fluorescence polarization, dose response (AID 1964);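 also: purified POS-1 fused to maltose binding protein made in E. coli; potency of compounds blocking POS-1 binding to fluorescent RNA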
T2 sequence (G5EF15 whole entry): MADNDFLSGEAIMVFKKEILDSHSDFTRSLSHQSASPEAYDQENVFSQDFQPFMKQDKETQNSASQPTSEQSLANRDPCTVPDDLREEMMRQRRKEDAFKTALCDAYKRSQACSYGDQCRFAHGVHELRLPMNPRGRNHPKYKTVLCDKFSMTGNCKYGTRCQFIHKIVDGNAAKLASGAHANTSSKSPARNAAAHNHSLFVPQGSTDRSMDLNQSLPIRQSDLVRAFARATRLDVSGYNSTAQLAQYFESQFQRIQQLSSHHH

[4] = molecular target: T3, Polyadenylate-binding protein 1 (Homo sapiens, UniProt P11940); assay: MLLE domain peptide-binding blockers, IC50 – biochemical, fluorescence polarization, FITC-PAM2 peptide, dose response (AID 602259); type: functional; settings: read-out: IC50_Mean
[5] = molecular target: T3, Polyadenylate-binding protein 1; assay: MLLE binding blockers, Cy5 peptide tracer – biochemical, fluorescence polarization, Cy5-PAM2 peptide, secondary, miRNA deadenylation inhibitor project, dose response (AID 602260); type: functional; settings: read-out: IC50_Mean
[6] = Trypanosoma cruzi growth suppression in host cells – NIH3T3 host cells, beta-gal luminescence, confirmation (AID 2044); type: functional, cell-based;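 also: intracellular parasites grown in NIH/3T3 mouse fibroblasts as host cells; luminescent beta-galactosidase reporter signal from transgenic T. cruzi replicating inside host cells; inhibitors lower the luminescence signal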
[7] = molecular target: T4, High affinity choline transporter 1 (Homo sapiens, UniProt Q9GZV3); assay: human choline transporter blockers, potency – cell-based, 5-point CRC, membrane potential dye, dose response (AID 504840); type: functional
T4 sequence (Q9GZV3 whole entry): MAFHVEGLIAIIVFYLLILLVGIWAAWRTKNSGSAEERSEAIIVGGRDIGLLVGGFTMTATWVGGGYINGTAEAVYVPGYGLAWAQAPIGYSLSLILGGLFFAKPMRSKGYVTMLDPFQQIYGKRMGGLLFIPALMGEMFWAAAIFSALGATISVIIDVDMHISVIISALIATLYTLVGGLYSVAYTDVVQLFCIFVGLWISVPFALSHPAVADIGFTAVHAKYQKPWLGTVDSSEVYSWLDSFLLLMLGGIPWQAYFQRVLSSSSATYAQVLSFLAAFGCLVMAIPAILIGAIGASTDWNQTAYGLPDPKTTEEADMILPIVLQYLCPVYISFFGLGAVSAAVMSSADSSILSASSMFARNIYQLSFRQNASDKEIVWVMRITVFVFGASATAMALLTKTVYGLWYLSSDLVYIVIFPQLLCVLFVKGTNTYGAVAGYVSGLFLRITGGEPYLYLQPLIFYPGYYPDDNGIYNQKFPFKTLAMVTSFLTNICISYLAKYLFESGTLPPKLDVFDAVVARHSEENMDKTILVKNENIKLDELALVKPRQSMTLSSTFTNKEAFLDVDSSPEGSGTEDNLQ

[8] = NIH3T3 cell viability loss – ATP luminescence, mouse fibroblasts, counter-screen, dose response (AID 2010); type: functional, cell-based;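 also: cells exposed to compound for about 90 hours before reading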
[9] = molecular target: T5, Rac GTPase-activating protein 1 (Homo sapiens, UniProt Q9H0H5); assay: blockers of MgcRacGAP-driven Rac1 GTP hydrolysis – biochemical, ADP Hunter fluorescence, primary and confirmatory, confirmation (AID 624330); type: functional
T5 sequence (Q9H0H5 whole entry): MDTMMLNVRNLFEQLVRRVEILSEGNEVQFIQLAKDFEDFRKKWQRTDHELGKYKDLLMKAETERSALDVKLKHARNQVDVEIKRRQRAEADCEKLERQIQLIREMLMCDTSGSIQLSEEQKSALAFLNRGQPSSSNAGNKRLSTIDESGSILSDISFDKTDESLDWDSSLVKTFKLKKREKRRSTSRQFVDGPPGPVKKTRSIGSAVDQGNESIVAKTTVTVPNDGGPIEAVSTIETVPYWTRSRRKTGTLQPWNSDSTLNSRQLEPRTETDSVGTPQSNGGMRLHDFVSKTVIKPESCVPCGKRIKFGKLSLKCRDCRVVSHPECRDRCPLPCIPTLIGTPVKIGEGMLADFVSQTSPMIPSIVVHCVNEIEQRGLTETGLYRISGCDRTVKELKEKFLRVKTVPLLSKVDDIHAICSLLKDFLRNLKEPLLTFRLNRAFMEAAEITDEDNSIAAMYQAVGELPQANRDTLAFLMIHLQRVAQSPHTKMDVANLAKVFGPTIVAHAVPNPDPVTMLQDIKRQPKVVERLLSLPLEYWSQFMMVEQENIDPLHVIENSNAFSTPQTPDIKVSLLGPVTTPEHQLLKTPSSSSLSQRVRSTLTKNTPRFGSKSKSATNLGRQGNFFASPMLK

[10] = Luminescence Cell-Based Dose Retest to Confirm Inhibitors of Cancer Stem Cells. [Related pubchem assays (depositor defined):AID2717, AID2721]; type: functional; settings: Homo sapiens
SN12K1 = assay: cells; type: functional; settings: Homo sapiens
P388/ADR = assay: cells; type: functional; settings: Mus musculus
P388 = assay: cells; type: functional; settings: Mus musculus

T3 sequence (P11940 whole entry, the tested form may be a part): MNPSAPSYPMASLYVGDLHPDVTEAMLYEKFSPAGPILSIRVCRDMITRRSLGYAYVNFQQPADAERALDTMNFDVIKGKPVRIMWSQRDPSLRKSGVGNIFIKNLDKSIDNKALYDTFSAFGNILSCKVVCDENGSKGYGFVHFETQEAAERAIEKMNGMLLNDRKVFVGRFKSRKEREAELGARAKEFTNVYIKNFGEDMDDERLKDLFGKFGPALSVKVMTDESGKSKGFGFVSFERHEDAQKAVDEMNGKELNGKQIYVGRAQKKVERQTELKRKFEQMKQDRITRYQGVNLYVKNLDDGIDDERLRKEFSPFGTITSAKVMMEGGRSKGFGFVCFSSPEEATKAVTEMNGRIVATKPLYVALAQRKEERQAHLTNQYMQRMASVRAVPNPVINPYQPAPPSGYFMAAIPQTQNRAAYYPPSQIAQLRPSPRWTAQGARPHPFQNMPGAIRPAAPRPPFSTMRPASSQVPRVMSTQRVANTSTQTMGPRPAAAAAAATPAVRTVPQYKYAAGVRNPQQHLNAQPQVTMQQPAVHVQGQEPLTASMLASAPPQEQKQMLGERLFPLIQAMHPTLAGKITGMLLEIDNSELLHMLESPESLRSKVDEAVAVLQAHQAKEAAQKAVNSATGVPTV
FAD-linked sulfhydryl oxidase ALR, sequence (P55789 whole entry): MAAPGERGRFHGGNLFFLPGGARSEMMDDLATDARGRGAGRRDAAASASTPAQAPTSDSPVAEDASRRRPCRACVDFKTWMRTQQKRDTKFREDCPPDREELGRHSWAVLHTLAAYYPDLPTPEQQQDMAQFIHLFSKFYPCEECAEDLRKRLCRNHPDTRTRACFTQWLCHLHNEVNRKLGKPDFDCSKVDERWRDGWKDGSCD

## NNc1nc2ccc(F)cc2s1
[1]
  AC50: 4.94 µM (active)

## COc1ccc(N2CCN(C(=O)CCNS(=O)(=O)c3ccccc3)CC2)cc1
[1]
  AC50: 8.08 µM (active)

## CCCCC1=CC2=CC(=O)C(C)(OC(=O)c3ccc(Cl)nc3)C(=O)C2=CO1 (configuration not stated)
[2]
  EC50: 21.6 µM (active)
[3]
  EC50: 21.7 µM (active)

## CN(CC(=O)Nc1cccc2ccccc12)C(=O)c1ccc(NC(=O)CC#N)cc1
[1]
  AC50: 6.29 µM (active)

## CC(C)c1nnc(NC(=O)CS(=O)(=O)Cc2ccccc2)s1
[4]
  IC50: > 66 µM (inactive)
[5]
  IC50: > 66 µM (inactive)

## Fc1cccc(Cc2noc(CN3CCC(c4ccncc4)CC3)n2)c1
[6]
  EC50: 2.11 µM (active)
[7]
  IC50: 14.5 µM (active)
[8]
  EC50: > 60 µM (not active)

## O=C(CN1CCN(c2ccc(Cl)cc2)CC1)N1CCCC1
[1]
  AC50: 0.657 µM (active)

## COc1ccc(OC)c(C(=O)c2coc3ccc(O)c(CN4CCOCC4)c23)c1
[2]
  EC50: > 300 µM (not active)
[3]
  EC50: > 300 µM (not active)

## Cn1c(=O)c(-c2cc(O)[nH]n2)c(O)c2ccccc21
[2]
  EC50: 23.3 µM (active)
[3]
  EC50: > 300 µM (not active)

## O=C(c1ccc(Cl)c(S(=O)(=O)N2CCCC2)c1)N1CCN(c2ccccc2)CC1
[7]
  IC50: 6.61 µM (active)

## Cc1ccc2[nH]c(C(=O)O)c(-c3ccccc3)c2c1
[1]
  AC50: 4.49 µM (active)

## CN1C(=O)C(=Cc2ccc(Sc3ccccc3)o2)C(=O)N(C)C1=S
[2]
  EC50: > 300 µM (not active)
[3]
  EC50: > 300 µM (not active)

## CCOC(=O)c1cnc2c(C)cc(Cl)cc2c1N1CCN(C)CC1
[7]
  IC50: 11.5 µM (active)

## O=C(Nc1ccc(Nc2ccccc2)cc1)C1CC1
[1]
  AC50: 0.875 µM (active)
[9]
  IC50: 50.8 µM (active)

## CC(C)n1c(O)c(N=NC(=O)Cc2csc(N3CCOCC3)n2)c2ccccc21
[7]
  IC50: 13.5 µM (active)

## Cn1c(=O)[nH]c(=O)c2c1nc(Br)n2CCCSc1nc2ccccc2o1
[1]
  AC50: < 0.005 µM (active)
[6]
  EC50: 1.32 µM (active)
[8]
  EC50: 15.8 µM (active)

## Cc1ccc(C)n1-c1ccc2c(c1)COC2=O
[2]
  EC50: > 300 µM (not active)
[3]
  EC50: > 300 µM (not active)

## COc1ccc(NS(=O)(=O)c2ccc(NC(=S)NC(=O)c3cccc(F)c3)cc2)nn1
[4]
  IC50: > 66 µM (inactive)
[5]
  IC50: > 66 µM (inactive)

## CCCC(=O)NC(=S)Nc1cccc(Cl)c1N1CCCC1
[10]
  AC50: 4.17 µM (active)
[4]
  IC50: > 66 µM (inactive)
[5]
  IC50: > 66 µM (inactive)

## COc1ccccc1C(=O)C1CCCN(C(=O)c2cccnc2SC)C1 (configuration not stated)
[2]
  EC50: > 300 µM (not active)
[3]
  EC50: > 300 µM (not active)

## CCCCCCN1C(=O)NC(=O)/C(=C\NCCCn2ccnc2)C1=O
[2]
  EC50: > 300 µM (inconclusive)
[3]
  EC50: > 300 µM (not active)

## COc1ccc(C(=O)NCC(c2cccnc2)N2CCN(c3ccc(F)cc3)CC2)cc1OC (configuration not stated)
[1]
  AC50: < 0.005 µM (active)

## CCc1c(O)n(-c2ccccc2C)c(SCC(=O)Nc2ccccc2OC)nc1=O
[4]
  IC50: > 66 µM (inactive)
[5]
  IC50: > 66 µM (inactive)

## NC(CSC(c1ccccc1)(c1ccccc1)c1ccccc1)C(=O)O (configuration not stated)
SN12K1
  GI50: 0.352 µM (active)
P388/ADR
  GI50: 5.43 µM (inactive)
P388
  GI50: 0.494 µM (active)

## NS(=O)(=O)OCCCCCCCOS(N)(=O)=O
SN12K1
  GI50: 273 µM (inactive)
P388/ADR
  GI50: > 83 µM (inactive)
P388
  GI50: 35.1 µM (inactive)

## O=P(NCCCO)(OCc1ccccc1)N(CCCl)CCCl (configuration not stated)
SN12K1
  GI50: > 100 µM (inactive)
P388/ADR
  GI50: > 100 µM (inactive)
P388
  GI50: > 100 µM (inactive)

## CN1CCC23c4ccccc4NC1C21CCN(C)C3Nc2ccccc21
SN12K1
  GI50: 202 µM (inactive)
P388/ADR
  GI50: > 254 µM (inactive)
P388
  GI50: 57.7 µM (inactive)

## CC(=O)Oc1cc2c(cc1OC(C)=O)OCC(c1ccc(C)cc1)C2 (configuration not stated)
SN12K1
  GI50: 14 µM (inactive)
P388/ADR
  GI50: 3.05 µM (inactive)
P388
  GI50: 2.87 µM (inactive)

## O=C(O)C1CCCN1c1nc(Cl)ccc1[N+](=O)[O-] (configuration not stated)
[4]
  IC50: > 66 µM (inactive)
[5]
  IC50: > 66 µM (inactive)
